Measured values from EP4227307A1 (Genzyme Corporation, priority 2022, dated 2023).
Structures can show the parent of a compound that is named as a salt.

Each compound was assayed against T1, human recombinant 6His-Nterm SHP2 full-length (Thr2-Arg593) (Homo sapiens, UniProt Q06124) (assay: SHP2 Phosphatase Assay (DiFMUP fluorescence)). Conditions: SHP2 0.2 nM pre-incubated with 100 nM bi-phosphorylated activating peptide; compound 1000-0.05 nM, 30 min pre-incubation; DiFMUP 20 µM, 45 min, room temperature; 10-concentration dose-response.
T1 construct: 6His-Nterm SHP2 full-length (Thr2-Arg593, R&D system); 6His (N); purchased R&D system
T1 sequence (Q06124 2-593): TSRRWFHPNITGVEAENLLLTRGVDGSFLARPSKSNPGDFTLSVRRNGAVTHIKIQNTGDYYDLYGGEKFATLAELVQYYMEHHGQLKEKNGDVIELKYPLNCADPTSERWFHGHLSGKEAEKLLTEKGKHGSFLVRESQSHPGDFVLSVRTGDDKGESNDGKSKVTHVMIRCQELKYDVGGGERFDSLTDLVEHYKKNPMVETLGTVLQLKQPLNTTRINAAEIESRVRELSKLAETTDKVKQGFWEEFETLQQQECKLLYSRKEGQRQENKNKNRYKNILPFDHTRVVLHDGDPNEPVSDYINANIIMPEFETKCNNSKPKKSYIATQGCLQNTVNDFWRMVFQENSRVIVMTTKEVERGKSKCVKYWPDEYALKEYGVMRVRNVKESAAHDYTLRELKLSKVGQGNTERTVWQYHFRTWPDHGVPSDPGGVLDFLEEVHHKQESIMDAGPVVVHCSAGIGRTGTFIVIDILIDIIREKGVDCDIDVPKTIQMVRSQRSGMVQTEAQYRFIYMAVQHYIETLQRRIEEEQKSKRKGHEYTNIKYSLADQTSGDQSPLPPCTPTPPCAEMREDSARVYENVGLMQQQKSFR
Assay type: biochemical
Summary of the method: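 SHP2 (0.2 nM) preactivated ≥10 min with 100 nM bis-phosphorylated peptide, then 30 min with compound (10 concentrations, 1000–0.05 nM) at room temperature, pH 7.2 HEPES buffer with DTT. DiFMUP (20 µM, added solution) reacted 45 min, pervanadate-stopped; fluorescence 350/450 nm. IC50 by 4-parameter logistic fit.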

IC50	Structure (SMILES)
2 nM	Cc1ccc(-c2c(C)nc(N3CCC4(CC3)Cc3ncccc3[C@H]4N)c3ccnn23)c(F)c1 [Compound 186, (5S)-1'-[7-(2-fluoro-4-methyl-phenyl)-6-methyl-pyrazolo[1,5-a]pyrazin-4-yl]spiro[5,7-dihydrocyclopenta[b]pyridine-6,4'-piperidine]-5-amine]
2 nM	Cc1nc(N2CCC3(CC2)Cc2ncccc2[C@H]3N)c2ccnn2c1-c1cccc(Cl)c1Cl [Compound 192, (5S)-1'-[7-(2,3-dichlorophenyl)-6-methyl-pyrazolo[1,5-a]pyrazin-4-yl]spiro[5,7-dihydrocyclopenta[b]pyridine-6,4'-piperidine]-5-amine]
17 nM	COc1ccc2c(c1)CC1(CCN(c3nc(C)c(-c4cnn(C)c4C)n4nccc34)CC1)[C@@H]2N [Compound 62, (1S)-1'-[7-(1,5-dimethylpyrazol-4-yl)-6-methyl-pyrazolo[1,5-a]pyrazin-4-yl]-5-methoxy-spiro[indane-2,4'-piperidine]-1-amine]
4 nM	Cc1cnc2c(c1)[C@@H](N)C1(CCN(c3nc(C)c(-c4ccnc(C)c4Cl)n4nccc34)CC1)C2 [Compound 43, (5S)-1'-[7-(3-chloro-2-methyl-4-pyridyl)-6-methyl-pyrazolo[1,5-a]pyrazin-4-yl]-3-methyl-spiro[5,7-dihydrocyclopenta[b]pyridine-6,4'-piperidine]-5-amine]
14 nM	Cc1nccc(Sc2c(C)nc(N3CCC4(CC3)Cc3ncccc3[C@H]4N)c3ccnn23)c1F [Compound 229, (5S)-1'-[7-[(3-fluoro-2-methyl-4-pyridyl)sulfanyl]-6-methyl-pyrazolo[1,5-a]pyrazin-4-yl]spiro[5,7-dihydrocyclopenta[b]pyridine-6,4'-piperidine]-5-amine]
73 nM	Cc1nc(N2CCC3(CC2)Cc2ncccc2[C@H]3N)c2ccnn2c1-c1cscc1C#N [Compound 46, 4-[4-[(5S)-5-aminospiro[5,7-dihydrocyclopenta[b]pyridine-6,4'-piperidine]-1'-yl]-6-methyl-pyrazolo[1,5-a]pyrazin-7-yl]thiophene-3-carbonitrile]
20 nM	Cc1nccc(-c2c(C)nc(N3CCC4(CC3)Oc3ncccc3[C@H]4N)c3ccnn23)c1Cl [Compound 15, (3R)-1'-[7-(3-chloro-2-methyl-4-pyridyl)-6-methyl-pyrazolo[1,5-a]pyrazin-4-yl]spiro[3H-furo[2,3-b]pyridine-2,4'-piperidine]-3-amine]
14 nM	Cc1nc(N2CCC3(CC2)Cc2cccnc2[C@H]3N)c2ccnn2c1-c1cccc(F)c1Cl [Compound 12, (7S)-1'-[7-(2-chloro-3-fluorophenyl)-6-methyl-pyrazolo[1,5-a]pyrazin-4-yl]spiro[5,7-dihydrocyclopenta[b]pyridine-6,4'-piperidine]-7-amine]

Second part, the compound before the results:

Structure (SMILES)	IC50
Cc1nc(N2CCC3(CC2)Cc2ncccc2[C@H]3N)c2ccnn2c1-c1cccc(CO)c1 [Compound 191, [3-[6-methyl-4-[(5S)-5-aminospiro [5,7-dihydrocyclopenta[b]pyridine-6,4'-piperidine]-1'-yl]pyrazolo[1,5-a]pyrazin-7-yl]phenyl]methanol]	16 nM
Cc1cc2c(cn1)CC1(CCN(c3nc(C)c(-c4ccnc(C)c4Cl)n4nccc34)CC1)[C@@H]2N [Compound 112, (5S)-1'-[7-(3-chloro-2-methyl-4-pyridyl)-6-methyl-pyrazolo[1,5-a]pyrazin-4-yl]-3-methyl-spiro[5,7-dihydrocyclopenta[c]pyridine-6,4'-piperidine]-5-amine hydrochloride]	5 nM
Cc1nc(N2CCC3(CC2)Cc2ncccc2[C@H]3N)c2ccnn2c1-c1cccs1 [Compound 99, (5S)-1'-[6-methyl-7-(2-thienyl)pyrazolo[1,5-a]pyrazin-4-yl]spiro [5,7-dihydrocyclopenta[b]pyridine-6,4'-piperidine]-5-amine hydrochloride]	9 nM
CCn1cc(-c2c(C)nc(N3CCC4(CC3)Cc3cc(OC)ccc3[C@H]4N)c3ccnn23)cn1 [Compound 148, (1S)-1'-[7-(1-ethylpyrazol-4-yl)-6-methyl-pyrazolo[1,5-a]pyrazin-4-yl]-5-methoxy-spiro[indane-2,4'-piperidine]-1-amine]	9 nM
Cc1ccc2c(n1)CC1(CCN(c3nc(C)c(-c4ccccc4F)n4nccc34)CC1)[C@@H]2N [Compound 106, (5S)-1'-[7-(2-fluorophenyl)-6-methyl-pyrazolo[1,5-a]pyrazin-4-yl]-2-methyl-spiro[5,7-dihydrocyclopenta[b]pyridine-6,4'-piperidine]-5-amine hydrochloride]	14 nM
Cc1nccc(-c2c(C)nc(N3CCC4(CC3)Cc3scnc3[C@H]4N)c3ccnn23)c1Cl [Compound 69, (4S)-1'-[7-(3-chloro-2-methyl-4-pyridyl)-6-methyl-pyrazolo[1,5-a]pyrazin-4-yl]spiro[4,6-dihydrocyclopenta[d]thiazole-5,4'-piperidine]-4-amine hydrochloride]	10 nM
Cc1nc(N2CCC3(CC2)Cc2ccncc2[C@H]3N)c2ccnn2c1-c1ccccc1F [Compound 134, (7S)-1'-[7-(2-fluorophenyl)-6-methyl-pyrazolo[1,5-a]pyrazin-4-yl]spiro[5,7-dihydrocyclopenta[c]pyridine-6,4'-piperidine]-7-amine]	4 nM
Cc1nc(N2CCC3(CC2)Cc2ncccc2[C@H]3N)c2ccnn2c1-c1ccc2c(c1)OCCO2 [Compound 183, (5S)-1'-[7-(2,3-dihydro-1,4-benzodioxin-6-yl)-6-methyl-pyrazolo[1,5-a]pyrazin-4-yl]spiro[5,7-dihydrocyclopenta[b]pyridine-6,4'-piperidine]-5-amine]	3 nM
Cc1nc(N2CCC3(CC2)Cc2ncccc2[C@H]3N)c2ccnn2c1-c1ccnc(C(C)C)c1Cl [Compound 7, (5S)-1'-[7-(3-chloro-2-isopropyl-4-pyridyl)-6-methyl-pyrazolo[1,5-a]pyrazin-4-yl]spiro[5,7-dihydrocyclopenta[b]pyridine-6,4'-piperidine] -5-amine hydrochloride]	13 nM
COc1ccc2c(n1)[C@H](N)C1(CCN(c3nc(C)c(-c4cccc(F)c4F)n4nccc34)CC1)C2 [Compound 214, (7R)-1'-[7-(2,3-difluorophenyl)-6-methyl-pyrazolo [1,5-a]pyrazin-4-yl]-2-methoxy-spiro[5,7-dihydrocyclopenta[b]pyridine-6,4'-piperidine]-7-amine]	594 nM
COc1cccc(-c2c(C)nc(N3CCC4(CC3)Cc3ncccc3[C@H]4N)c3ccnn23)c1 [Compound 32, (5S)-1'-[7-(3-methoxyphenyl)-6-methyl-pyrazolo[1,5-a]pyrazin-4-yl]spiro[5,7-dihydrocyclopenta[b]pyridine-6,4'-piperidine]-5-amine]	6 nM
[2H]c1c([2H])c([2H])c(-c2c(C)nc(N3CCC4(CC3)Cc3ncccc3[C@H]4N)c3ccnn23)c([2H])c1[2H] [Compound 57, (5S)-1'-[6-methyl-7-(2,3,4,5,6-pentadeuteriophenyl)pyrazolo [1,5-a]pyrazin-4-yl]spiro[5,7-dihydrocyclopenta[b]pyridine-6,4'-piperidine]-5-amine]	10 nM
Cc1nc(N2CCC3(CC2)Cc2ncccc2[C@H]3N)c2ccnn2c1-c1cccc(F)c1C#N [Compound 180, 2-fluoro-6-[6-methyl-4-[(5S)-5-aminospiro[5,7-dihydrocyclopenta[b]pyridine-6,4'-piperidine]-1'-yl]pyrazolo[1,5-a]pyrazin-7-yl]benzonitrile]	39 nM
